Experimental data reported in PubChem BioAssay AID248 (DTP/NCI, 2004).
Values joined by “and” are separate entries in the source; they are usually repeats but may differ in a detail not shown here. Equal values may be shown once. Inconclusive results and toxic doses are left out. Rule as the data show it: active = T/C of 150% or more; inactive = T/C below 125%.

System: L1210 leukemia ip in BDF1 mice, survival T/C
Test: NCI In Vivo Anticancer Drug Screen. Data for tumor model L1210 Leukemia (intraperitoneal) in B6D2F1 (BDF1) mice
Details: endpoint: mean survival time, higher = longer survival
Procedure, shortened: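 Transplantable tumor model; survival measured in treated vs vehicle control mice. Value = treated/control.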

[1] = dose: 50.0 mg/kg/injection, schedule: Q04DX002 (ip), vehicle: Klucel (hydroxypropylcellulose) (HPC)
[2] = dose: 100.0 mg/kg/injection, schedule: Q01DX009 (ip), vehicle: Klucel (hydroxypropylcellulose) (HPC)
[3] = dose: 200.0 mg/kg/injection, schedule: Q01DX009 (ip), vehicle: Klucel (hydroxypropylcellulose) (HPC)
[4] = dose: 25.0 mg/kg/injection, schedule: Q01DX009 (ip), vehicle: saline with Tween-80
[5] = dose: 50.0 mg/kg/injection, schedule: Q01DX009 (ip), vehicle: saline with Tween-80
[6] = dose: 100.0 mg/kg/injection, schedule: Q01DX009 (ip), vehicle: saline with Tween-80
[7] = dose: 100.0 mg/kg/injection, schedule: Q04DX003 (ip), vehicle: saline with Tween-80
[8] = dose: 200.0 mg/kg/injection, schedule: Q01DX009 (ip), vehicle: saline with Tween-80
[9] = dose: 100.0 mg/kg/injection, schedule: Q04DX003 (ip), vehicle: saline
[10] = dose: 200.0 mg/kg/injection, schedule: Q04DX003 (ip), vehicle: saline with Tween-80
[11] = dose: 400.0 mg/kg/injection, schedule: Q04DX003 (ip), vehicle: saline with Tween-80
[12] = dose: 400.0 mg/kg/injection, schedule: Q01DX009 (ip), vehicle: Klucel (hydroxypropylcellulose) (HPC)

Measured: T/C

O=C(c1ccccc1)C(Cc1ccccc1)C(Cc1ccccc1)c1ccccc1 (centres undefined)
inactive: dose: 100.0 mg/kg/injection, schedule: Q04DX003 (ip), vehicle: acetone 93 % of control | dose: 200.0 mg/kg/injection, schedule: Q04DX003 (ip), vehicle: acetone 98 % of control | dose: 400.0 mg/kg/injection, schedule: Q04DX003 (ip), vehicle: acetone 92 % of control

NC(=O)COc1c(Cl)cc(Cl)cc1Cl
inactive: dose: 100.0 mg/kg/injection, schedule: Q04DX002 (ip), vehicle: saline with Tween-80 103 % of control | dose: 200.0 mg/kg/injection, schedule: Q04DX002 (ip), vehicle: saline with Tween-80 103 % of control | dose: 400.0 mg/kg/injection, schedule: Q04DX002 (ip), vehicle: saline with Tween-80 100 % of control

CC1C(O)c2ccccc2OC1N1CCOCC1 (centres undefined)
inactive: [1] 96 % of control | dose: 100.0 mg/kg/injection, schedule: Q04DX002 (ip), vehicle: Klucel (hydroxypropylcellulose) (HPC) 100 % of control | dose: 200.0 mg/kg/injection, schedule: Q04DX002 (ip), vehicle: Klucel (hydroxypropylcellulose) (HPC) 93 % of control

CC1(C)C2CCC1C(O)C2 (centres undefined)
inactive: dose: 75.0 mg/kg/injection, schedule: Q01DX009 (ip), vehicle: saline 104 % of control | dose: 150.0 mg/kg/injection, schedule: Q01DX009 (ip), vehicle: saline 103 % of control | dose: 300.0 mg/kg/injection, schedule: Q01DX009 (ip), vehicle: saline 94 % of control

CCCC/C(C)=N/Nc1ccc([N+](=O)[O-])cc1[N+](=O)[O-]
inactive: dose: 12.5 mg/kg/injection, schedule: Q04DX002 (ip), vehicle: saline with Tween-80 98 % of control | dose: 25.0 mg/kg/injection, schedule: Q04DX002 (ip), vehicle: saline with Tween-80 106 % of control | dose: 50.0 mg/kg/injection, schedule: Q04DX002 (ip), vehicle: saline with Tween-80 98 % of control

CCCCCCCCCCCCO
inactive: [2] 88 % of control | [3] 96 % of control

C[N+](C)(Cc1ccccc1)C1c2ccccc2-c2ccccc21
inactive: dose: 0.5 mg/kg/injection, schedule: Q04DX002 (ip), vehicle: Klucel (hydroxypropylcellulose) (HPC) 109 % of control | dose: 1.0 mg/kg/injection, schedule: Q04DX002 (ip), vehicle: Klucel (hydroxypropylcellulose) (HPC) 109 % of control | dose: 2.0 mg/kg/injection, schedule: Q04DX002 (ip), vehicle: Klucel (hydroxypropylcellulose) (HPC) 109 % of control

CCOC(=O)C(C(=O)c1ccccc1)c1cc(NS(=O)(=O)c2ccccc2)ccc1O (centres undefined)
inactive: dose: 12.5 mg/kg/injection, schedule: Q01DX009 (ip), vehicle: saline with Tween-80 90 % of control | [4] 95 % of control | [5] 94 % of control and 97 % of control | [6] 86 % of control | [7] 91 % of control | [8] 86 % of control

CCCN=C(N)c1ccc(NC(=O)c2ccc(C(=O)Nc3ccc(C(N)=NCCC)cc3)c(Cl)c2)cc1
inactive: dose: 1.25 mg/kg/injection, schedule: Q01DX Z (ip), vehicle: water 98 % of control | dose: 2.5 mg/kg/injection, schedule: Q01DX Z (ip), vehicle: water 101 % of control | dose: 13.0 mg/kg/injection, schedule: Q01DX Z (ip), vehicle: carboxymethylcellulose (CMC) 121 % of control | dose: 62.0 mg/kg/injection, schedule: Q01DX Z (oral), vehicle: water 104 % of control | dose: 125.0 mg/kg/injection, schedule: Q01DX Z (oral), vehicle: water 110 % of control | dose: 250.0 mg/kg/injection, schedule: Q01DX Z (oral), vehicle: water 104 % of control | dose: 500.0 mg/kg/injection, schedule: Q01DX Z (oral), vehicle: water 104 % of control
active: dose: 6.5 mg/kg/injection, schedule: Q01DX Z (ip), vehicle: carboxymethylcellulose (CMC) 155 % of control

CCCCC/C(=N/N)c1ccc2cc3c(cc2c1)CCCC3
inactive: dose: 100.0 mg/kg/injection, schedule: Q01DX001 (ip), vehicle: saline 97 % of control | dose: 200.0 mg/kg/injection, schedule: Q01DX001 (ip), vehicle: saline 95 % of control | dose: 400.0 mg/kg/injection, schedule: Q01DX001 (ip), vehicle: saline 90 % of control

CC[N+](CC)(CC)CCOC(=O)C1C2CC3OC(=O)C1C3C2 (centres undefined)
inactive: [9] 96 % of control

OC1(c2ccccc2)C2=CC(c3ccccc3)=C(c3ccccc3)CC2C(c2ccccc2)C1c1ccccc1 (centres undefined)
inactive: dose: 100.0 mg/kg/injection, schedule: Q01DX001 (ip), vehicle: saline with Tween-80 100 % of control | dose: 200.0 mg/kg/injection, schedule: Q01DX001 (ip), vehicle: saline with Tween-80 91 % of control | dose: 400.0 mg/kg/injection, schedule: Q01DX001 (ip), vehicle: saline with Tween-80 96 % of control

CC(=O)NCC(=O)c1ccc(Cl)cc1
inactive: [6] 103 % of control | [7] 102 % of control | [8] 104 % of control | [10] 102 % of control | dose: 400.0 mg/kg/injection, schedule: Q01DX009 (ip), vehicle: saline with Tween-80 121 % of control | [11] 96 % of control

CC(=O)Oc1ccc(N(CCO)CCO)cc1OC(C)=O
inactive: dose: 1.17 mg/kg/injection, schedule: Q01DX001 (ip), vehicle: water 103 % of control | dose: 2.34 mg/kg/injection, schedule: Q01DX001 (ip), vehicle: water 97 % of control | dose: 4.68 mg/kg/injection, schedule: Q01DX001 (ip), vehicle: water 100 % of control

ON=C1CCCCCCC1
inactive: dose: 12.5 mg/kg/injection, schedule: Q04DX002 (ip), vehicle: Klucel (hydroxypropylcellulose) (HPC) 105 % of control | dose: 25.0 mg/kg/injection, schedule: Q04DX002 (ip), vehicle: Klucel (hydroxypropylcellulose) (HPC) 96 % of control | [1] 101 % of control

CC1(C)OC(=O)C(=Cc2cccc3ccc4ccccc4c23)C(=O)O1
inactive: dose: 100.0 mg/kg/injection, schedule: Q01DX001 (ip), vehicle: gum acacia 100 % of control | dose: 200.0 mg/kg/injection, schedule: Q01DX001 (ip), vehicle: gum acacia 97 % of control | dose: 400.0 mg/kg/injection, schedule: Q01DX001 (ip), vehicle: gum acacia 101 % of control

NC(=O)NC(=O)c1nccnc1C(=O)O
inactive: dose: 100.0 mg/kg/injection, schedule: Q01DX001 (ip), vehicle: water 88 % of control | dose: 200.0 mg/kg/injection, schedule: Q01DX001 (ip), vehicle: water 101 % of control | dose: 400.0 mg/kg/injection, schedule: Q01DX001 (ip), vehicle: water 87 % of control

COc1ccc(OC)c(CCN)c1
inactive: [4] 98 % of control | [5] 105 % of control | [6] 104 % of control | [9] 107 % of control

CNC(=S)N(C)C
inactive: dose: 100.0 mg/kg/injection, schedule: Q04DX003 (ip), vehicle: saline sonified 114 % of control | dose: 200.0 mg/kg/injection, schedule: Q04DX003 (ip), vehicle: saline sonified 103 % of control | dose: 400.0 mg/kg/injection, schedule: Q04DX003 (ip), vehicle: saline sonified 103 % of control

CC(=O)OC1CCC(NC(=O)NCCCl)CC1 (centres undefined)
inactive: dose: 100.0 mg/kg/injection, schedule: Q01DX001 (ip), vehicle: other 96 % of control | dose: 200.0 mg/kg/injection, schedule: Q01DX001 (ip), vehicle: other 98 % of control | dose: 400.0 mg/kg/injection, schedule: Q01DX001 (ip), vehicle: other 88 % of control

COc1ccc2[nH]c3c(c2c1)CSc1ccccc1-3
inactive: [2] 110 % of control | [3] 104 % of control | [12] 94 % of control

OCC12COC(c3ccccc3)N1C(c1ccccc1)OC2 (centres undefined)
inactive: [2] 102 % of control | dose: 100.0 mg/kg/injection, schedule: Q04DX003 (ip), vehicle: Klucel (hydroxypropylcellulose) (HPC) 102 % of control | [3] 102 % of control | dose: 200.0 mg/kg/injection, schedule: Q04DX003 (ip), vehicle: Klucel (hydroxypropylcellulose) (HPC) 102 % of control | [12] 97 % of control | dose: 400.0 mg/kg/injection, schedule: Q04DX003 (ip), vehicle: Klucel (hydroxypropylcellulose) (HPC) 100 % of control

CCOP(=O)(OCC)c1cccc(N)c1
inactive: [9] 100 % of control | dose: 200.0 mg/kg/injection, schedule: Q04DX003 (ip), vehicle: saline 87 % of control | dose: 400.0 mg/kg/injection, schedule: Q04DX003 (ip), vehicle: saline 100 % of control

CC(=O)OC1CCC2C3CCc4cc(OC(=S)N(C)C)ccc4C3CCC12C (centres undefined)
inactive: [7] 101 % of control | [10] 101 % of control | [11] 110 % of control
